From paper PMC7037682, “Herb–Drug Interaction of Red Ginseng Extract and Ginsenoside Rc with Valsartan in Rats” (Molecules, 2020)
Read-outs that look alike come from different tables or passages of the source.

What was measured:
[1] = target: T1, OCT2 (Homo sapiens, UniProt O15244); experiment: Inhibition of OCT2-mediated [3H]MPP+ uptake in HEK293-OCT2 cells
T1 sequence (O15244 1-555): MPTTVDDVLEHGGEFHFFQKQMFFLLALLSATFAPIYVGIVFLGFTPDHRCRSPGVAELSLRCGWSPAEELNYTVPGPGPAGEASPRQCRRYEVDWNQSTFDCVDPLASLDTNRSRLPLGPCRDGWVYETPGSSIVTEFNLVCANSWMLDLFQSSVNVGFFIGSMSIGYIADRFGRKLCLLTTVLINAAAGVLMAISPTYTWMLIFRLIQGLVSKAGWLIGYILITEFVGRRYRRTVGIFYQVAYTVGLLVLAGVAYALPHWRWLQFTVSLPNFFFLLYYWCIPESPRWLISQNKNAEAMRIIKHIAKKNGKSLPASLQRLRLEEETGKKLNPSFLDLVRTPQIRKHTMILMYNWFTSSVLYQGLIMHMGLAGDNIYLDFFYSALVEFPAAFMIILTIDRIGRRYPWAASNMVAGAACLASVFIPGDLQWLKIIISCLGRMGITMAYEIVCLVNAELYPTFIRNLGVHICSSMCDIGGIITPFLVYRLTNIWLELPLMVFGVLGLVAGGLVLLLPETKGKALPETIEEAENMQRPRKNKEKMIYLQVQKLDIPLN
Protocol: (§1) HEK293 cells overexpressing the OCT1, OCT2, OAT1, OAT3, OATP1B1, and OATP1B3 transporters (HEK293-OCT1, -OCT2, -OAT1, -OAT3, -OATP1B1, and -OATP1B3, respectively) and HEK293-mock cells (Corning Life Sciences; Woburn, MA, USA) were used and characterized as previously described.
(§2) HEK293 cells overexpressing drug transporters and HEK293-mock cells were seeded in poly-D-lysine-coated 96-well plates at a density of 10^5 cells/well and were cultured in DMEM supplemented with 10% FBS, 5 mM non-essential amino acids, and 2 mM sodium butyrate in a humidified atmosphere with 8% CO2 at 37 °C.
To examine the effects of ginsenosides and typical inhibitors on transporter activity, aliquots (100 μL) of HBSS containing the probe substrate and ginsenosides or typical inhibitors were added to the cells after aspirating pre-incubated HBSS. The concentrations and probe substrates were as follows: 0.1 μM [^3H]MPP^+ for OCT1 and OCT2, 0.1 μM [^3H]PAH for OAT1, 0.1 μM [^3H]ES for OAT3 and OATP1B1, and 0.1 μM [^3H]EG for OATP1B3. […] Then the uptake of probe substrates into HEK293-mock cells and HEK293-OCT1, -OCT2, -OAT1, -OAT3, -OATP1B1, and -OATP1B3 cells in the presence and absence of typical inhibitor or each ginsenoside with previously described concentration range was measured for 5 min. Immediately after placing the plates on ice, the cells were washed three times with 100 μL of ice-cold HBSS, followed by lysing with 50 μL of 10% SDS solution and mixing with 150 μL of Optiphase cocktail solution (Perkin Elmer Inc., Boston, MA, USA). The radioactivity of the probe substrates in the cells was determined using a liquid scintillation counter.
(§3) In the inhibition studies, the uptake rate of substrate by HEK293 cells overexpressing the respective transporters was used as the control (100%) and the uptake rate of substrates in the presence of typical inhibitors or ginsenosides expressed as a percentage of the control. The inhibition data were fitted to an inhibitory effect model using Sigma plot (version 10.0; Systat Software Inc., San Jose, CA, USA). IC50 value indicated the half-maximal inhibitory concentration of the inhibitor.

[2] = Plasma pharmacokinetics of ginsenosides in rats after 1-week repeated RGE
Protocol: The rats were randomly divided into the control and RGE groups. The RGE group received a RGE suspension (1.5 g/mL/kg/day, in distilled water) for 7 days via oral gavage. The control group received distilled water for 7 days via oral gavage. After 1 h following the last RGE treatment, valsartan was injected intravenously to both groups via the tail vein at 1 mg/mL/kg (dissolved in DMSO: saline = 2:8, v/v). […] After centrifugation of the blood samples at 16,000× g for 10 min, aliquots (50 μL each) of plasma samples were stored at −80 °C until the analysis of ginsenosides and valsartan.
The residue was reconstituted with 100 μL of 70% methanol consisting of 0.1% formic acid. An aliquot (20 μL) from the sample was injected into the LC-MS/MS system.
After freezing the aqueous layer at −80 °C for 2 h, the upper organic layer was transferred to a clean tube and evaporated to dryness. […] An aliquot (20 μL) from the sample was injected into the LC-MS/MS system. The samples were eluted through an Omega Polar C18 column (2.1 mm × 100 mm, 3 µm particle size) (Phenomenex, Torrance, CA, USA) using a mobile phase consisting of 0.1% formic acid in water: 0.1% formic acid in methanol (15:85, v/v) at a flow rate of 0.2 mL/min.
Pharmacokinetic parameters were calculated from plasma concentration-time profile using non-compartment analysis of WinNonlin (version 5.1; Pharsights, Cary, NC, USA). The statistical significance was assessed by t-test using Statistical Package for the Social Sciences (version 24.0; SPSS Inc., Chicago, IL, USA).

[3] = target: T2, OAT1 (Homo sapiens, UniProt Q4U2R8); experiment: Inhibition of OAT1-mediated [3H]PAH uptake in HEK293-OAT1 cells
T2 sequence (Q4U2R8 1-563): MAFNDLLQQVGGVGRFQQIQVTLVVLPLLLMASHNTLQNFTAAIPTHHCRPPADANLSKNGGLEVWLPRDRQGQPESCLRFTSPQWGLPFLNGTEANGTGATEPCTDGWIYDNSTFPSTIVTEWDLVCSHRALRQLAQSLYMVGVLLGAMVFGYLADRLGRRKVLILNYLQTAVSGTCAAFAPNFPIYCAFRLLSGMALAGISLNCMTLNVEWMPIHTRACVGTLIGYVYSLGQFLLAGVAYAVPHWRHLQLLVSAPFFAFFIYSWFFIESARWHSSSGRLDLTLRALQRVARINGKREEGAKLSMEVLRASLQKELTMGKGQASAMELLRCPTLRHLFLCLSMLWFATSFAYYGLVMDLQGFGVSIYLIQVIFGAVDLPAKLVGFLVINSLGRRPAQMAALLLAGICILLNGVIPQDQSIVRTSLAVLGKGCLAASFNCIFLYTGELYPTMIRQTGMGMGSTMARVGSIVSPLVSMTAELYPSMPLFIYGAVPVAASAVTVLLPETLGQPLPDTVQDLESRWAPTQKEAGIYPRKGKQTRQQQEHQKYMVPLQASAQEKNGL
Protocol: as §1, §2
Then the uptake of probe substrates into HEK293-mock cells and HEK293-OCT1, -OCT2, -OAT1, -OAT3, -OATP1B1, and -OATP1B3 cells in the presence and absence of typical inhibitor or each ginsenoside with previously described concentration range was measured for 5 min. Immediately after placing the plates on ice, the cells were washed three times with 100 μL of ice-cold HBSS, followed by lysing with 50 μL of 10% SDS solution and mixing with 150 μL of Optiphase cocktail solution (Perkin Elmer Inc., Boston, MA, USA). The radioactivity of the probe substrates in the cells was determined using a liquid scintillation counter.
as §3

| IC50 [1] [µM] | maximum plasma concentration (molar) ([2]; rat plasma, after RGE 1.5 g/kg/day po for 7 days) [nM] | AUC ([2]; rat, plasma, po, 1.5 g/kg/day) [µg·h/mL] | Cmax ([2]; rat, plasma, po, 1.5 g/kg/day) [µg/mL] | MRT ([2]; rat, plasma, po, 1.5 g/kg/day) [h] | Tmax ([2]; rat, plasma, po, 1.5 g/kg/day) [h] | half-life ([2]; rat, plasma, po, 1.5 g/kg/day) [h] | IC50 [3] [µM] | Structure (SMILES) | IC50 ([1]; read-out: IC50 OCT2, HEK293-OCT2, 0.1 μM [3H]MPP+ uptake, 5 min) [µM] | detection in rat plasma ([2]; LC-MS/MS, after RGE 1.5 g/kg/day po for 1 week) | IC50 ([3]; read-out: IC50 OAT1, HEK293-OAT1, 0.1 μM [3H]PAH uptake, 5 min) [µM] |
| --- | --- | --- | --- | --- | --- | --- | --- | --- | --- | --- | --- |
| – | – | – | – | – | – | – | – | CC(C)=CCC[C@](C)(O)[C@H]1CC[C@]2(C)[C@@H]1[C@H](O)C[C@@H]1[C@@]3(C)CC[C@H](O[C@@H]4O[C@H](CO)[C@@H](O)[C@H](O)[C@H]4O[C@@H]4O[C@H](CO)[C@@H](O)[C@H](O)[C@H]4O)C(C)(C)[C@@H]3CC[C@]12C [Rg3, ginsenoside Rg3] | > 100 | not detected | > 100 |
| > 100 | 9.1 | 0.283 ± 0.0589 | 0.01 ± 0.00104 | 18.6 ± 1.43 | 3.33 ± 1.15 | 30.2 ± 5.48 | > 100 | CC(C)=CCC[C@](C)(O[C@@H]1O[C@H](CO[C@@H]2OC[C@H](O)[C@H](O)[C@H]2O)[C@@H](O)[C@H](O)[C@H]1O)[C@H]1CC[C@]2(C)[C@@H]1[C@H](O)C[C@@H]1[C@@]3(C)CC[C@H](O[C@@H]4O[C@H](CO)[C@@H](O)[C@H](O)[C@H]4O[C@@H]4O[C@H](CO)[C@@H](O)[C@H](O)[C@H]4O)C(C)(C)[C@@H]3CC[C@]12C [Rb2, ginsenoside Rb2] | – | – | – |
